Values joined by “and” are separate entries in the source; they are usually repeats but may differ in a detail not shown here. Identical values can stand only once. *1 amine or outer side, *2 acyl side, *3 side chain or, on linkers, in order; H or OH if unused. Where no end group is shown, it is not given here. [ ]: non-standard residue; d: D form. Benzoyl(5-NH,2-NO2) = O=C(c1cc(N[*:1])ccc1[N+](=O)[O-])[*:2]; 2Abz = Nc1ccccc1C(=O)O
What was measured:
[1] = tested on: urine samples taken from healthy persons; assay: Hydrolysis of the chromogenic substrate in urine from healthy subjects (absorbance at 405 nm); format: biochemical, human; settings: for absorbance: healthy subject, 405 nm, 60 minutes, 37° C., pH 8.0, triplicate
[2] = tested on: proteolytic enzymes in urine from a subject suffering from intestinal cancer; assay: Hydrolysis of the chromogenic substrate in urine from subjects with intestinal cancer (absorbance at 405 nm); format: biochemical, human; settings: for absorbance: 405 nm, 60 minutes, 37° C., pH 8.0, triplicate
Procedure: The activity of the novel compounds according to the invention was studied in a group of 20 subjects diagnosed with intestinal cancer using the representative compound according to the invention. […] The remaining compounds according to the invention are characterized by the analogous mechanism of action. For this purpose, the representative compound according to the invention, ABZ^1-Asn^2-Phe^3-Ser^4-Pro^5-ANB^6—NH2, was dissolved in dimethyl sulfoxide (at a concentration of 0.5 mg/mL) and then 50 μL of the solution was mixed with 120 μL of a buffer (200 mM Tris-HCl, pH 8.0) and 80 μL of urine from a subject suffering from intestinal cancer. The measurement was performed on a 96-well plate designed for measuring absorbance and each sample was analysed in triplicate at the temperature of 37° C. The duration of the measurement was 60 minutes. During the measurement, the wavelength characteristic for the chromophore (ANB-NH2) being released was monitored at the wavelength 405 nm (range 380-430 nm).

[3] = tested on: urine taken from a person diagnosed with intestinal cancer; assay: RP HPLC analysis of substrate cleavage in urine from a person with intestinal cancer; format: biochemical, human; settings: randomly selected urine sample from a person diagnosed with intestinal cancer
[4] = tested on: at least one enzyme of the studied material; assay: Dependence of substrate hydrolysis on reaction pH; format: biochemical; settings: FIG. 4
Procedure: Furthermore, measurements concerning the dependence of the proteolytic activity of the representative compound according to the invention on the reaction pH were performed.

- cleavage of the substrate ([2]; all samples 1-20 from persons suffering from intestinal cancer): underwent cleavage
- absorbance ([2]; urine sample 3, intestinal cancer): 0.035 and 0.034 and 0.036
- absorbance ([2]; urine sample 4, intestinal cancer): 0.0314 and 0.0313 and 0.0385
- absorbance ([2]; urine sample 7, intestinal cancer): 0.041 and 0.039 and 0.04
- absorbance ([2]; urine sample 8, intestinal cancer): 0.0257 and 0.0219 and 0.0258
- absorbance ([2]; urine sample 9, intestinal cancer): 0.056 and 0.064 and 0.06
- absorbance ([2]; urine sample 10, intestinal cancer): 0.025 and 0.024 and 0.026
- absorbance ([2]; urine sample 11, intestinal cancer): 0.015 and 0.016 and 0.027
- absorbance ([2]; urine sample 12, intestinal cancer): 0.0916 and 0.0979 and 0.101
- absorbance ([2]; urine sample 13, intestinal cancer): 0.046 and 0.0337 and 0.0461
- absorbance ([2]; urine sample 14, intestinal cancer): 0.025 and 0.018 and 0.0182
- absorbance ([2]; urine sample 15, intestinal cancer): 0.031 and 0.028 and 0.02
- absorbance ([2]; urine sample 16, intestinal cancer): 0.0183 and 0.0293 and 0.0246
- absorbance ([2]; urine sample 17, intestinal cancer): 0.073 and 0.07 and 0.046
- absorbance ([2]; urine sample 18, intestinal cancer): 0.016 and 0.0186 and 0.0202
- absorbance ([2]; urine sample 19, intestinal cancer): 0.036 and 0.04 and 0.038
- dependence of the proteolytic activity on the reaction pH [4]: maximum activity at alkaline pH
Substance: ABZ-Asn-Phe-Ser-Pro-ANB-NH2 ([2Abz]NFSP-{Benzoyl(5-NH,2-NO2)-NH2}) [chromogenic/fluorogenic peptide substrate; ABZ is 2-aminobenzoic acid, ANB-NH2 is amide of 5-amino-2-nitrobenzoic acid]
- absorbance ([1]; urine sample 1Z): 0.00000
- absorbance ([1]; urine sample 2Z): 0.00000
- absorbance ([1]; urine sample 3Z): 0.00000
- absorbance ([1]; urine sample 4Z): 0.00000
- absorbance ([1]; urine sample 5Z): 0.00000
- absorbance ([1]; urine sample 6Z): 0.00000
- absorbance ([1]; urine sample 7Z): 0.00000
- absorbance ([1]; urine sample 8Z): 0.00000
- absorbance ([1]; urine sample 9Z): 0.00000
- absorbance ([1]; urine sample 10Z): 0.00000
- absorbance ([1]; urine sample 11Z): 0.00000
- absorbance ([1]; urine sample 12Z): 0.00000
- absorbance ([1]; urine sample 13Z): 0.00000
- absorbance ([1]; urine sample 14Z): 0.00000
- absorbance ([1]; urine sample 15Z): 0.00000
- absorbance ([1]; urine sample 16Z): 0.00000
- absorbance ([1]; urine sample 17Z): 0.00000
- absorbance ([1]; urine sample 18Z): 0.00000
- absorbance ([1]; urine sample 19Z): 0.00000
- absorbance ([1]; urine sample 20Z): 0.00000
- increase in absorbance / hydrolysis of the tested compound ([1]; urine samples from healthy persons 1Z to 20Z): does not lead to an increase in absorbance
- cleavage products by RP HPLC [3]: cleaves into the peptide fragment ABZ-Asn-Phe-Ser-Pro-OH and the chromophore group of the compound (ANB-NH2)

Reference: patent US20250206777A1, “COMPOUND - DIAGNOSTIC MARKER FOR INTESTINAL CANCER, METHOD FOR DETECTING ENZYMATIC ACTIVITY, METHOD FOR DIAGNOSIS OF INTESTINAL CANCER, KIT COMPRISING THE COMPOUND, USES OF THE COMPOUND AND METHOD FOR THE TREATMENT OF INTESTINAL CANCER” (URTESTE S.A., priority 2022, published 2025)
